According to patent EP0539088B1, “Echinocandin b derivative” (MERCK & CO. INC., priority 1991, dated 1993):
Structures can show the parent of a compound that is named as a salt.

Legend:
[1] = system: red blood cells; experiment: Red blood cell lysis, minimum lytic concentration; type: cell-based, human
Description: A harmful and potentially fatal side reaction of a number of drugs including certain antibiotically active echinocandin compounds is red blood cell lysis. […] The blood cell lysis property may be seen in the determination carried out in the following manner.
The blood employed is a 4 percent suspension of freshly drawn heparinized blood prepared by adding 2 milliliters of blood to 50 milliliters of sterile 5 percent dextrose.
Compound I was solubilized in a small volume of dimethylsulfoxide (DMSO) that was then diluted with distilled water to a final concentration of 5 percent DMSO to obtain a drug suspension of 4.0 mg/ml. A 0.2 milliliter amount of the drug suspension was added to 1.4 milliliters of sterile 5 percent dextrose to obtain the test suspension. A diluent control was also prepared.
A 96-well microliter plate with a well volume of 0.35 ml was used for the assay. Columns 2-12 were filled with 150 µl of sterile 5 percent dextrose. Then, 300 µl of test suspensions were dispensed into the wells in column 1 and serially two-fold diluted in 5 percent dextrose to yield final test concentrations of from 400 to 0.20 µg/ml. […]

[2] = system: Candida albicans MY 1055; experiment: Minimum fungicidal concentration (MFC), microbroth dilution assay in YNBD; type: cell-based; details: MY1055, 35°C 24 hours, then SDA 24 hours at 28°C
Description: (§1) The compounds of the present invention are active against many fungi and as previously indicated particularly against Candida species. The antifungal properties may be illustrated with the minimum fungicidal concentration (MFC) determination against certain Candida organisms in a microbroth dilution assay carried out in a Yeast Nitrogen Base (Difco) medium with 1 percent dextrose (YNBD).
(§2) In carrying out the assay, Compound I was solubilized in 10 percent dimethyl sulfoxide (DMSO) and diluted to 2560 µg/ml. The compound was then diluted to 256 µg/ml in YNBD. 0.15 mL of the suspension was dispensed to the top row of a 96-well plate (each well containing 0.15 ml of YNBD) resulting in a drug concentration of 128 µg/ml. Two-fold dilutions were then made from the top row to obtain final drug concentrations ranging from 128 to 0.06 µg/ml. […]
(§3) 96-well microplates were inoculated-using a MIC-2000 (Dynatech) which delivers […] per well yielding a final inoculum per well of 1.5-7.5 x 10^3 cells. […] The minimum inhibitory concentrations (MICs) were recorded as the lowest concentrations of drug showing no visible growth.
(§4) After recording the MIC, the plates were shaken to resuspend the cells. […] The inoculated trays were incubated 24 hours at 28°C and then read for minimum fungicidal concentration (MFC). […]

[3] = system: Candida albicans MY 1028; experiment: as above; type: cell-based; details: MY1028, 35°C 24 hours, then SDA 24 hours at 28°C
Description: as §1, §2, §3, §4

[4] = system: Candida albicans (MY 1055); experiment: In vivo kidney CFU reduction in mice infected with Candida albicans; set-up: species or system female DBA/2 mice; details: 0.4 mg/kg I.P. twice daily for four consecutive days; kidneys after seven days
Description: Growth from an overnight SDA culture of Candica albicans MY 1055 was suspended in sterile saline and the cell concentration determined by hemacytometer count and the cell suspension adjusted to 3.75 x 10^5 cells/ml. Then 0.2 milliliter of this suspension was administered I.V. in the tail vein of mice so that the final inoculum was 7.5 x 10^4 cells/mouse.
The assay then was carried out by administering aqueous solutions of Compound I at various concentrations intraperitoneally (I.P.), twice daily (b.i.d.) for four consecutive days to 18 to 20 gram female DBA/2 mice, which previously had been infected with Candida albicans (MY 1055) in the manner described above. Distilled water was administered I.P. to C. albicans challenged mice as controls. After seven days, the mice were sacrificed by carbon dioxide gas, paired kidneys were removed aseptically and placed in sterile polyethylene bags containing 5 milliters of sterile saline. The kidneys were homogenized in the bags, serially diluted in sterile saline and aliquots spread on the surface of SDA plates. The plates were incubated at 35°C for 48 hours and yeast colonies were enumerated for determination of colony forming units (CFU) per gram of kidneys.

`CCC(C)CC(C)CCCCCCCCC(=O)NC1CC(O)C(OCCN)NC(=O)C2C(O)CCN2C(=O)C(C(O)CC(N)=O)NC(=O)C(C(O)C(O)c2ccc(O)cc2)NC(=O)C2CC(O)CN2C(=O)C(C(C)O)NC1=O` (centres unmarked) [Compound I, 1-[4-hydroxy-5-aminoethyloxy-N^2-(10,12-dimethyl-1-oxotetradecyl)-ornithine]-5-(3-hydroxyglutamine)-6-(3-hydroxyproline)-echinocandin B trifluoroacetate] was tested, and the “red blood cell lysis” value ([1]; at concentrations far beyond what would be used for therapeutic purposes) was “no red blood cell lysis”, the “Minimum lytic concentration (MLC)” value ([1]; lowest concentration producing complete or partial lysis, 2 hours at room temperature, tested 400 to 0.20 µg/ml) was 400 µg/mL and the MFC [2] was 0.125 µg/mL. The MFC [3] was 0.25 µg/mL and the “reduction of recoverable Candida CFUs” value [4] was “greater than 99%”.
